Here are results for 19 compounds from US9661853B2, “Molecules having pesticidal utility, and intermediates, compositions, and processes, related thereto” (Dow AgroSciences LLC, priority 2015, dated 2017).

Assay [1] has as its system Cabbage Looper (Trichoplusia ni, TRIPNI). The assay can be described thus: Bioassay on Cabbage Looper (CL), 128-well diet tray assay. As to conditions: 168 h, 50 μg/cm^2 on artificial diet, second instar larvae, 25° C., five to seven days, average of eight wells, read-out: CL % Control (or Mortality) rating. The assay is classed as in vivo. The procedure: (§1) Bioassays on Beet Armyworm (Spodoptera exigua, LAPHEG) (“BAW”) and Cabbage Looper (Trichoplusia ni, TRIPNI) (“CL”)
(§2) Certain molecules disclosed in this document were tested against BAW and CL using procedures described in the following examples. In the reporting of the results, the “BAW & CL Rating Table” was used (See Table Section).
Bioassays on CL were conducted using a 128-well diet tray assay. One to five second instar CL larvae were placed in each well (3 mL) of the diet tray that had been previously filled with 1 mL of artificial diet to which 50 μg/cm^2 of the test molecule (dissolved in 50 μL of 90:10 acetone-water mixture) had been applied (to each of eight wells) and then allowed to dry. Trays were covered with a clear self-adhesive cover, vented to allow gas exchange, and held at 25° C., 14:10 light-dark for five to seven days. Percent mortality was recorded for the larvae in each well; activity in the eight wells was then averaged. The results are indicated in the table entitled “Table ABC: Biological Results” (See Table Section).

In assay [2] the test system is Beet Armyworm (Spodoptera exigua, LAPHEG). The assay can be described thus: Bioassay on Beet Armyworm (BAW), 128-well diet tray assay. It counts as in vivo. As to conditions: 168 h, 50 μg/cm^2 on artificial diet, second instar larvae, 25° C., five to seven days, average of eight wells, read-out: BAW % Control (or Mortality) rating. As to the method:
as §1, §2
Bioassays on BAW were conducted using a 128-well diet tray assay. One to five second instar BAW larvae were placed in each well (3 mL) of the diet tray that had been previously filled with 1 mL of artificial diet to which 50 μg/cm^2 of the test molecule (dissolved in 50 μL of 90:10 acetone-water mixture) had been applied (to each of eight wells) and then allowed to dry. Trays were covered with a clear self-adhesive cover, vented to allow gas exchange, and held at 25° C., 14:10 light-dark for five to seven days. Percent mortality was recorded for the larvae in each well; activity in the eight wells was then averaged. The results are indicated in the table entitled “Table ABC: Biological Results” (See Table Section).

`Cc1ccc(C(C)C)c(N2C(=O)CS/C2=N\C(=O)Nc2ccc(N(C)C(=O)c3ncn(-c4ccc(OC(F)(F)F)cc4)n3)cc2)c1` [F27, (Z)—N-(4-(3-(3-(2-Isopropyl-5-methylphenyl)-4-oxothiazolidin-2-ylidene)ureido)phenyl)-N-methyl-1-(4-(trifluoromethoxy)phenyl)-1H-1,2,4-triazole-3-carboxamide]: the mortality at 50 µg/cm2 in assay [1] and in assay [2] was 50 to 100% throughout.
In the case of `Cc1ccc(C(C)C)c(N2C(=O)CS/C2=N\C(=O)Nc2ccc(NCc3ncn(-c4ccc(OC(F)(F)F)cc4)n3)cc2)c1` [F28, (Z)-1-(3-(2-isopropyl-5-methylphenyl)-4-oxothiazolidin-2-ylidene)-3-(4-(((1-(4-(trifluoromethoxy)phenyl)-1H-1,2,4-triazol-3-yl)methyl)amino)phenyl)urea], the mortality at 50 µg/cm2 in assay [1] and in assay [2] was 50 to 100% in each case.
As for `CCCc1ccc(C)cc1N1C(=O)CS/C1=N\C(=O)Nc1ccc(NCc2ncn(-c3ccc(OC(F)(F)F)cc3)n2)cc1` [F29, (Z)-1-(3-(5-Methyl-2-propylphenyl)-4-oxothiazolidin-2-ylidene)-3-(4-(((1-(4-(trifluoromethoxy)phenyl)-1H-1,2,4-triazol-3-yl)methyl)amino)phenyl)urea], the mortality at 50 µg/cm2 in assay [1] and in assay [2] was 50 to 100% throughout.
On to `COCc1ccc(C)cc1N1C(=O)CS/C1=N\C(=O)Nc1ccc(NCc2ncn(-c3ccc(OC(F)(F)F)cc3)n2)cc1` [F30, (Z)-1-(3-(2-(Methoxymethyl)-5-methylphenyl)-4-oxothiazolidin-2-ylidene)-3-(4-(((1-(4-(trifluoromethoxy)phenyl)-1H-1,2,4-triazol-3-yl)methyl)amino)phenyl)urea], for which the mortality at 50 µg/cm2 in assay [1] and in assay [2] was 50 to 100% in each case.
With `Cc1ccc(C(C)C)c(N2C(=O)CS/C2=N\C(=O)Nc2ccc(NCc3ncn(-c4ccc(OC(F)(F)F)cc4)n3)cc2F)c1` [F31, (Z)-1-(2-Fluoro-4-(((1-(4-(trifluoromethoxy)phenyl)-1H-1,2,4-triazol-3-yl)methyl)amino)phenyl)-3-(3-(2-isopropyl-5-methylphenyl)-4-oxothiazolidin-2-ylidene)urea], the mortality at 50 µg/cm2 in assay [1] and in assay [2] was 50 to 100% each time.
As to `CCCc1ccc(C)cc1N1C(=O)CS/C1=N\C(=O)Nc1ccc(NCc2ncn(-c3ccc(OC(F)(F)F)cc3)n2)cc1F` [F32, (Z)-1-(2-Fluoro-4-(((1-(4-(trifluoromethoxy)phenyl)-1H-1,2,4-triazol-3-yl)methyl)amino)phenyl)-3-(3-(5-methyl-2-propylphenyl)-4-oxothiazolidin-2-ylidene)urea], the mortality at 50 µg/cm2 in assay [1] and in assay [2] was 50 to 100% each time.
Consider `COCc1ccc(C)cc1N1C(=O)CS/C1=N\C(=O)Nc1ccc(NCc2ncn(-c3ccc(OC(F)(F)F)cc3)n2)cc1F` [F33, (Z)-1-(2-Fluoro-4-(((1-(4-(trifluoromethoxy)phenyl)-1H-1,2,4-triazol-3-yl)methyl)amino)phenyl)-3-(3-(2-(methoxymethyl)-5-methylphenyl)-4-oxothiazolidin-2-ylidene)urea], for which the mortality at 50 µg/cm2 in assay [1] and in assay [2] was 50 to 100% throughout.
Turning to `Cc1ccc(C(C)C)c(N2C(=O)CS/C2=N\C(=O)Nc2ccc(NCc3ncn(-c4ccc(OC(F)(F)F)cc4)n3)c(F)c2)c1` [F34, (Z)-1-(3-Fluoro-4-(((1-(4-(trifluoromethoxy)phenyl)-1H-1,2,4-triazol-3-yl)methyl)amino)phenyl)-3-(3-(2-isopropyl-5-methylphenyl)-4-oxothiazolidin-2-ylidene)urea], the mortality at 50 µg/cm2 in assay [1] and in assay [2] was 50 to 100% throughout.
On to `CCCc1ccc(C)cc1N1C(=O)CS/C1=N\C(=O)Nc1ccc(NCc2ncn(-c3ccc(OC(F)(F)F)cc3)n2)c(F)c1` [F35, (Z)-1-(3-Fluoro-4-(((1-(4-(trifluoromethoxy)phenyl)-1H-1,2,4-triazol-3-yl)methyl)amino)phenyl)-3-(3-(5-methyl-2-propylphenyl)-4-oxothiazolidin-2-ylidene)urea], for which the mortality at 50 µg/cm2 in assay [1] and in assay [2] was 50 to 100% in each case.
In the case of `COCc1ccc(C)cc1N1C(=O)CS/C1=N\C(=O)Nc1ccc(NCc2ncn(-c3ccc(OC(F)(F)F)cc3)n2)c(F)c1` [F36, (Z)-1-(3-Fluoro-4-(((1-(4-(trifluoromethoxy)phenyl)-1H-1,2,4-triazol-3-yl)methyl)amino)phenyl)-3-(3-(2-(methoxymethyl)-5-methylphenyl)-4-oxothiazolidin-2-ylidene)urea], the mortality at 50 µg/cm2 in assay [1] and in assay [2] was 50 to 100% throughout.
On to `COc1cc(NC(=O)/N=C2\SCC(=O)N2c2cc(C)ccc2C(C)C)ccc1NCc1ncn(-c2ccc(OC(F)(F)F)cc2)n1` [F37, (Z)-1-(3-(2-Isopropyl-5-methylphenyl)-4-oxothiazolidin-2-ylidene)-3-(3-methoxy-4-(((1-(4-(trifluoromethoxy)phenyl)-1H-1,2,4-triazol-3-yl)methyl)amino)phenyl)urea], for which the mortality at 50 µg/cm2 in assay [1] and in assay [2] was 50 to 100% each time.
For `CCCc1ccc(C)cc1N1C(=O)CS/C1=N\C(=O)Nc1ccc(NCc2ncn(-c3ccc(OC(F)(F)F)cc3)n2)c(OC)c1` [F38, (Z)-1-(3-Methoxy-4-(((1-(4-(trifluoromethoxy)phenyl)-1H-1,2,4-triazol-3-yl)methyl)amino)phenyl)-3-(3-(5-methyl-2-propylphenyl)-4-oxothiazolidin-2-ylidene)urea], the mortality at 50 µg/cm2 in assay [1] and in assay [2] was 50 to 100% in each case.
As to `COCc1ccc(C)cc1N1C(=O)CS/C1=N\C(=O)Nc1ccc(NCc2ncn(-c3ccc(OC(F)(F)F)cc3)n2)c(OC)c1` [F39, (Z)-1-(3-Methoxy-4-(((1-(4-(trifluoromethoxy)phenyl)-1H-1,2,4-triazol-3-yl)methyl)amino)phenyl)-3-(3-(2-(methoxymethyl)-5-methylphenyl)-4-oxothiazolidin-2-ylidene)urea], the mortality at 50 µg/cm2 in assay [1] and in assay [2] was 50 to 100% each time.
As for `Cc1ccc(C(C)C)c(N2C(=O)CS/C2=N\C(=O)Nc2ccc(NCc3ncn(-c4ccc(OC(F)(F)F)cc4)n3)cc2Cl)c1` [F40, (Z)-1-(2-Chloro-4-(((1-(4-(trifluoromethoxy)phenyl)-1H-1,2,4-triazol-3-yl)methyl)amino)phenyl)-3-(3-(2-isopropyl-5-methylphenyl)-4-oxothiazolidin-2-ylidene)urea], the mortality at 50 µg/cm2 in assay [1] and in assay [2] was 50 to 100% in each case.
For `CCCc1ccc(C)cc1N1C(=O)CS/C1=N\C(=O)Nc1ccc(NCc2ncn(-c3ccc(OC(F)(F)F)cc3)n2)cc1Cl` [F41, (Z)-1-(2-Chloro-4-(((1-(4-(trifluoromethoxy)phenyl)-1H-1,2,4-triazol-3-yl)methyl)amino)phenyl)-3-(3-(5-methyl-2-propylphenyl)-4-oxothiazolidin-2-ylidene)urea], the mortality at 50 µg/cm2 in assay [1] and in assay [2] was 50 to 100% each time.
For the compound `COCc1ccc(C)cc1N1C(=O)CS/C1=N\C(=O)Nc1ccc(NCc2ncn(-c3ccc(OC(F)(F)F)cc3)n2)cc1Cl` [F42, (Z)-1-(2-Chloro-4-(((1-(4-(trifluoromethoxy)phenyl)-1H-1,2,4-triazol-3-yl)methyl)amino)phenyl)-3-(3-(2-(methoxymethyl)-5-methylphenyl)-4-oxothiazolidin-2-ylidene)urea], the mortality at 50 µg/cm2 in assay [1] and in assay [2] was 50 to 100% each time.
In the case of `Cc1ccc(C(C)C)c(N2C(=O)CS/C2=N\C(=O)Nc2ccc(NCc3ncn(-c4ccc(OC(F)(F)F)cc4)n3)c(Cl)c2)c1` [F43, (Z)-1-(3-Chloro-4-(((1-(4-(trifluoromethoxy)phenyl)-1H-1,2,4-triazol-3-yl)methyl)amino)phenyl)-3-(3-(2-isopropyl-5-methylphenyl)-4-oxothiazolidin-2-ylidene)urea], the mortality at 50 µg/cm2 in assay [1] and in assay [2] was 50 to 100% each time.
Regarding `CCCc1ccc(C)cc1N1C(=O)CS/C1=N\C(=O)Nc1ccc(NCc2ncn(-c3ccc(OC(F)(F)F)cc3)n2)c(Cl)c1` [F44, (Z)-1-(3-Chloro-4-(((1-(4-(trifluoromethoxy)phenyl)-1H-1,2,4-triazol-3-yl)methyl)amino)phenyl)-3-(3-(5-methyl-2-propylphenyl)-4-oxothiazolidin-2-ylidene)urea], the mortality at 50 µg/cm2 in assay [1] and in assay [2] was 50 to 100% each time.
Take `Cc1ccc(C(C)C)c(N2C(=O)CS/C2=N\C(=O)Nc2ccc(NCc3ncn(-c4ccc(OC(F)(F)F)cc4)n3)nc2)c1` [F46, (Z)-1-(3-(2-isopropyl-5-methylphenyl)-4-oxothiazolidin-2-ylidene)-3-(6-(((1-(4-(trifluoromethoxy)phenyl)-1H-1,2,4-triazol-3-yl)methyl)amino)pyridin-3-yl)urea]: the mortality at 50 µg/cm2 in assay [1] and in assay [2] was 50 to 100% in each case.
